# Source: ChEMBL document CHEMBL1138435, “A novel antibacterial iridoid and triterpene from Caiophora coronata” (2003)
# Activity calls are given as the source filed them. The rule behind the calls is not given here.
# Experiments:
# Enterococcus faecium = test: Antimicrobial activity against vancomycin-resistant Enterococcus faecium 379 after 18 hrs by twofold serial microbroth dilution method; format: functional; conditions: Enterococcus faecium, 379, 18 h
# Candida albicans = test: Antimicrobial activity against Candida albicans 54 after 18 hrs by agar diffusion method; format: functional
# Escherichia coli [1] = test: Antimicrobial activity against Escherichia coli 389 after 18 hrs by twofold serial microbroth dilution method; format: functional; conditions: Escherichia coli, 389, 18 h
# Staphylococcus aureus [2] = test: Antimicrobial activity against methicillin-resistant Staphylococcus aureus 310 after 18 hrs by twofold serial microbroth dilution method; format: functional; conditions: Staphylococcus aureus, 310, 18 h
# Staphylococcus aureus [3] = test: Antimicrobial activity against methicillin-sensitive Staphylococcus aureus 375 after 18 hrs by twofold serial microbroth dilution method; format: functional; conditions: Staphylococcus aureus, 375, 18 h
# Bacillus subtilis = test: Antimicrobial activity against Bacillus subtilis 327 after 18 hrs by twofold serial microbroth dilution method; format: functional; conditions: Bacillus subtilis, 327, 18 h
# Escherichia coli [4] = test: Antimicrobial activity against Escherichia coli 442 after 18 hrs by twofold serial microbroth dilution method; format: functional; conditions: Escherichia coli, 442, 18 h
# Escherichia coli [5] = test: Antimicrobial activity against Escherichia coli 442 after 18 hrs by agar diffusion method; format: functional, organism-based
Structure (SMILES),MIC (Enterococcus faecium),"MIC (Candida albicans; Candida albicans, 54, 18 h)",MIC (Escherichia coli [1]),MIC (Staphylococcus aureus [2]),MIC (Staphylococcus aureus [3]),MIC (Bacillus subtilis),inhibition zone (IZ) (Candida albicans),MIC (Escherichia coli [4]),inhibition zone (IZ) (Escherichia coli [5])
CC1(C)S[C@@H]2[C@H](NC(=O)Cc3ccccc3)C(=O)N2[C@H]1C(=O)O [PENICILLIN G],32 µg/mL,> 128 µg/mL,4 µg/mL,128 µg/mL,0.06 µg/mL,32 µg/mL,–,–,–
CO[C@H]1OC(=O)[C@H](C)[C@@H]2[C@@H]1[C@@H](CO)C[C@@H]2O [CAIOPHORAENIN],> 128 µg/mL,–,> 128 µg/mL,> 128 µg/mL,> 128 µg/mL,> 128 µg/mL,inactive,> 128 µg/mL,inactive
C[C@@H]1[C@@H]2COC(=O)C[C@H]2C[C@@H]1O [ISOBOONEIN],> 128 µg/mL,–,> 128 µg/mL,> 128 µg/mL,> 128 µg/mL,> 128 µg/mL,inactive,> 128 µg/mL,inactive
C[C@H]1[C@H](C)CC[C@]2(C)CC[C@]3(C(=O)O)C(=CC[C@@H]4[C@@]5(C)[C@H](O)C[C@H](O)C(C)(C)[C@@H]5CC[C@]43C)[C@H]12,4 µg/mL,–,16 µg/mL,4 µg/mL,4 µg/mL,2 µg/mL,inactive,–,inactive
